Test results published in patent publication US11413278B2, “Compounds and methods for promoting stress resistance” (priority 2015, dated 2022).
Like-named read-outs stand apart in the source and are kept apart here.

Assays:
WI-38 cells [1] = test: Propidium iodide (PI) cell-death imaging upon H2O2 stress; format: cell-based, human; details: for Assay 7: H2O2-resistant, at 10 uM, validated by propidium iodide (PI) cell-death imaging: w/H2O2, 3 hrs/4 hrs/5 hrs, YES/NO; for cytotoxicity at 10 µM: Homo sapiens, WI-38
human PARP1 = biological target: T1, human PARP1 (Homo sapiens, UniProt P09874); test: PARP inhibitor assay (HT Fluorescent Homogeneous PARP Inhibition Assay Kit); format: biochemical; details: score
T1 construct: purchased Trevigen
T1 sequence (P09874 whole entry): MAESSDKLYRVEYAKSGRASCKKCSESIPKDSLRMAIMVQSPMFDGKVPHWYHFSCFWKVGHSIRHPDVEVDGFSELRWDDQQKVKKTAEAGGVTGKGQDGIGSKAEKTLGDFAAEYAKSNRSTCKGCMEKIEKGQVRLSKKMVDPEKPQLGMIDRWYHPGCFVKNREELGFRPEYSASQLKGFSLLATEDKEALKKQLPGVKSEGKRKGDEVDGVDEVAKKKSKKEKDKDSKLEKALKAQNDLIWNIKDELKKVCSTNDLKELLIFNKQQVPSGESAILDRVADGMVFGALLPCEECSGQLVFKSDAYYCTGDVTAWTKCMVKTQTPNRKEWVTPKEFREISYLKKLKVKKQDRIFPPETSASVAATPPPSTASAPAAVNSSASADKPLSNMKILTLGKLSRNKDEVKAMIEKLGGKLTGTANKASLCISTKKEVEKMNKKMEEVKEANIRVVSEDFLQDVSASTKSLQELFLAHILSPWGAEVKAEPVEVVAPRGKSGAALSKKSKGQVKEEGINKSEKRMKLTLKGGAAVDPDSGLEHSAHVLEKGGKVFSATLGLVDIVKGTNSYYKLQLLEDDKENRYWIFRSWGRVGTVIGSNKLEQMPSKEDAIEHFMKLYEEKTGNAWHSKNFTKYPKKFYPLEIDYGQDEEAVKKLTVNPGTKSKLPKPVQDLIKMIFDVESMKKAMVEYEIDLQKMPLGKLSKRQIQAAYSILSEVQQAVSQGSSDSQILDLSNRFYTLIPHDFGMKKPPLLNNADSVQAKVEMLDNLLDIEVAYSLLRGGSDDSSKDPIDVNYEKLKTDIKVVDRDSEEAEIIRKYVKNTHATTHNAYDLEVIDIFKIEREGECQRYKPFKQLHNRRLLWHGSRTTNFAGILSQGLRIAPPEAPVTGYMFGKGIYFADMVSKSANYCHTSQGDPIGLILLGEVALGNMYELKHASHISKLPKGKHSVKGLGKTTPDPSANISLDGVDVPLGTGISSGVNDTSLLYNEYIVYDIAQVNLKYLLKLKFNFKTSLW
Method in brief: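 Human PARP1 with NAD and activated DNA, compounds at 10 μM final, 30 min at room temperature in dark. Resazurin/diaphorase cycling mix then added for 1 hr in dark before stop buffer; fluorescent homogeneous kit read-out.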

WI-38 cells [2] = test: CdCl2 (cadmium) resistance assay; format: cell-based, human; details: for fold induction at 10 µM: Homo sapiens, 12 h, normalized ATP measurement
Method in brief: (§1)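 WI-38 cells were given compounds at five final concentrations (0.25–20 μM) in triplicate, followed by cadmium or MMS for 12 h. For MMS, medium was switched from OptiMEM+10% FBS to serum-free DMEM+2% BSA when compounds were added, 24 h before stressor. Two independent assays were run, analysed by global variance t-test.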

WI-38 cells [3] = test: MMS resistance assay; format: cell-based, human; details: for fold induction at 10 µM: Homo sapiens, 12 h, normalized ATP measurement
Method in brief: as §1

[4] = system: human dermal fibroblast (HDF) primary cells; test: H2O2-resistance in primary human dermal fibroblasts; format: cell-based; details: for fold induction at 10 µM: Homo sapiens; for Assay 6: H2O2-resistant, at 10 uM, human dermal fibroblast (HDF) primary cells: YES/NO
[5] = system: PC12 cells expressing poly(Q)103-Htt-EGFP; test: Poly(Q) toxicity & viability analysis (cellular model of Huntington's disease); format: cell-based, rat; details: for M = Huntington's poly-Q toxicity attenuation: score; for K = Huntington's poly-Q toxicity attenuation: summary score
Method in brief: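 PC12 cells stably carrying inducible poly(Q)103-Htt-EGFP, whose induced expression causes aggregation and toxicity. Viability read 48 hrs later as ATP content by CellTiter-Glo.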

WI-38 cells [6] = details: no H2O2 stress, 10 uM; negative control 0.41% ± 0.23%
Description: WI-38 cells were seeded on 384-well plates for 24 hrs and then incubated with small molecules for 24 hrs. […] Images were collected on an INCell Analyzer 2000 (GE) and analyzed with the Developer software.

[7] = Summary score for characterization of 38 core set hits; details: for D = Triple resistant: 2-point score, multiplex resistance (cadmium, MMS, H2O2); for S = Sum of Negative scores: human; for C = H2O2- & Cd-resistant: score, resistance to both H2O2 and cadmium
Method in brief: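 Composite score. 2 pts each: multiplex stress resistance, FOXO3/NRF2 activation, mTOR down-regulation. Worm lifespan (4–6 independent trials): 0 = no obvious effect, 1 = extension in 2 trials, 2 = extension in >2 trials. −1 for DNA damage and/or cytotoxicity in cultured human cells.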

[8] = H2O2 3 hrs, 10 uM, n = 6, negative control 5.44% ± 0.79%, read-out: Percentage of propidium iodide-positive dead cells (under H2O2 stress treatment), 3 hrs
[9] = pre-treatment at 10 uM, 3.5 hours of H2O2, DMSO control 27.4% ± 6.5%, */**/*** = reduced by one/two/three standard deviations, read-out: Percentage of propidium iodide-positive dead cells (under H2O2 stress treatment), at 10 uM
[10] = Exp. 1, WI-38 cells, read-out: Exp. 1, under Cd2Cl2 stress treatment, at 10 uM (fold change)
[11] = Exp. 2, WI-38 cells, read-out: Exp. 2, under Cd2Cl2 stress treatment, at 10 uM (fold change)
[12] = score in summary of 38 core set hits
[13] = Exp. 1, WI-38 cells, read-out: Exp. 1, under MMS stress treatment, at 10 uM (fold change)
[14] = Exp. 2, WI-38 cells, read-out: Exp. 2, under MMS stress treatment, at 10 uM (fold change)
[15] = Experiment 1, HDF cells, read-out: Experiment 1, HDF cells (under H2O2 stress treatment), at 10 uM (fold change)
[16] = Experiment 2, HDF cells, read-out: Experiment 2, HDF cells (under H2O2 stress treatment), at 10 uM (fold change)

Compound	Assay 7: H2O2-resistant, at 10 uM, validated by propidium iodide (PI) cell-death imaging (WI-38 cells [1]; 10 uM)	cytotoxicity at 10 µM (WI-38 cells [1]; [8]) [%]	cytotoxicity at 10 µM (WI-38 cells [1]; [9]) [%]	L = PARP inhibition (human PARP1)	fold induction at 10 µM (WI-38 cells [2]; [10])	fold induction at 10 µM (WI-38 cells [2]; [11])	A = Cadmium resistant (WI-38 cells [2]; [12])	A = Cadmium resistant (WI-38 cells [2]; summary score)	C = H2O2- & Cd-resistant (WI-38 cells [2]; summary score)	fold induction at 10 µM (WI-38 cells [3]; [13])	fold induction at 10 µM (WI-38 cells [3]; [14])	B = MMS resistant (WI-38 cells [3]; [12])	B = MMS resistant (WI-38 cells [3]; summary score)	D = Triple resistant (WI-38 cells [3]; summary score)	fold induction at 10 µM [4, 15]	fold induction at 10 µM [4, 16]	Assay 6: H2O2-resistant, at 10 uM, human dermal fibroblast (HDF) primary cells [4]	M = Huntington's poly-Q toxicity attenuation [5]	K = Huntington's poly-Q toxicity attenuation [5]	Percentage of propidium iodide-positive dead cells (no H2O2 stress treatment), at 10 uM (WI-38 cells [6])	other results
Nc1ccccc1S(=O)(=O)Nc1cccc2cccnc12 [Gr-3C]	YES	5.13	3.1	0	0.06	0.4	0	0	0	1.06	0.84	0	0	0	6.59	1.69	YES	0	0	0.57% ± 0.24%,	D = Triple resistant [7]: 0; S = Sum of Negative scores [7]: 2; C = H2O2- & Cd-resistant [7]: 0
O=C(Nc1cccc(C(F)(F)F)c1)c1ccc([N+](=O)[O-])o1 [Gr-1E]	YES	1.68	18.8	0	6.69	8.82	1	1	1	0.72	1.21	0	0	0	1.4	31	YES	0	0	0.71% ± 0.28%,	cytotoxicity at 10 µM (WI-38 cells [1]; H2O2 4 hrs, 10 uM, n = 6, negative control 16.81% ± 1.42%, read-out: Percentage of propidium iodide-positive dead cells (under H2O2 stress treatment), 4 hrs): 2.95%; cytotoxicity at 10 µM (WI-38 cells [1]; H2O2 5 hrs, 10 uM, n = 6, negative control 22.50% ± 1.53%, read-out: Percentage of propidium iodide-positive dead cells (under H2O2 stress treatment), 5 hrs): 3.44%; CdCl2-resistant (WI-38 cells [2]): YES; H2O2- & CdCl2-resistant (WI-38 cells [2]): YES; CdCl2-resistant (WI-38 cells [2]; WI-38 cells, 10 μM): YES; H2O2- & CdCl2-resistant (WI-38 cells [2]; WI-38 cells, 10 μM, both stressors): YES; Assay 4: H2O2- & Cd-resistant (WI-38 cells [2]; YES/NO): YES; Assay 2: Cadmium-resistant (WI-38 cells [2]; YES/NO, * indicates partial): YES; Assay 3: MMS-resistant (WI-38 cells [3]; YES/NO, * indicates partial): NO *; Assay 5: Triple resistant (WI-38 cells [3]; YES/NO, H2O2, cadmium and MMS): YES; D = Triple resistant [7]: 0; S = Sum of Negative scores [7]: 0; C = H2O2- & Cd-resistant [7]: 1
